# Experimental data published in US20240415819A1, “MACROCYCLIC COMPOUNDS AS PROTEASOME SUBUNIT BETA TYPE-5 INHIBITORS” (Lead Discovery Center GmbH, priority 2021, published 2024).
# Key:
# [1] = target: T1, β5 subunit of the human constitutive proteasome (CPS) (Homo sapiens, UniProt P28074); experiment: β5 inhibition assay, human constitutive proteasome (Suc-LLVY-AMC); type: biochemical; conditions: IC50 class, Suc-LLVY-AMC substrate
# T1 construct: purchased Boston Biochem E-360
# Experimental: The enzymatic activity of the β5 subunit of the human constitutive proteasome (CPS) is analyzed. In another assay, which differs from the assay of the human constitutive proteasome only in using the human immunoproteasome (IPS) the enzymatic activity of the β5 subunit of the human immunoproteasome (IPS) is analyzed. […] Inhibition is indicated as IC50 [nM] (“-”=not measured).
# [2] = target: T2, β5 subunit of the human immunoproteasome (IPS) (Homo sapiens, UniProt P28062); experiment: β5 inhibition assay, human immunoproteasome (Suc-LLVY-AMC); type: biochemical; conditions: IC50 class, Suc-LLVY-AMC substrate
# T2 construct: purchased Boston Biochem E-370
# Experimental: The enzymatic activity of the β5 subunit of the human constitutive proteasome (CPS) is analyzed. In another assay, which differs from the assay of the human constitutive proteasome only in using the human immunoproteasome (IPS) the enzymatic activity of the β5 subunit of the human immunoproteasome (IPS) is analyzed. Incubation of the enzyme with its fluorogenic substrate Suc-LLVY-AMC leads to liberation of the fluorescent dye AMC which can be measured with a suitable plate reader. • 100 mM HEPES pH7.5 • 50 mM NaCl • 0.02% SDS • 1 mM DTT (add fresh) • Victor X5 (Perkin Elmer) • Label: Umbeliferone (0.1s) • Excitation wavelength: 355 nm • Emission wavelength: 460 nm • 4 μl human cPS or IPS enzyme in assay buffer (final assay concentration 1 nM) or 4 μl assay buffer for negative controls • Compound addition via acoustic dispenser (Echo 520, Labcyte) • Mix and incubate @ RT for 10 min • 4 μl Suc-LLVY-AMC substrate (final assay concentration 22.6 μM) • Mix and incubate @ RT for 4 h (dark) • Stop reaction with 4 μl Bortezomib (final assay concentration 1 μM) • 15 min @ RT • Measure (Excitation 355 nm; Emission 460 nm)
# HT-29 cells = experiment: CellTiter-Glo luminescent cell viability assay with HT-29 cells (72h incubation); type: cell-based, human; conditions: Homo sapiens, HT-29, HT29 cells, read-out: CTG HT29
# Experimental: Cell Titer Glo Viability Assay with HT-29 Cells (72h Incubation) The CellTiter-Glo Luminescent Cell Viability Assay (Promega) is a homogeneous method of determining the number of viable cells in culture. It is based on quantification of ATP, indicating the presence of metabolically active cells. On day 1 400 HT-29 cells per well are seeded in white 384well plates (Greiner, #781080) in 25 μl cell culture medium (DMEM (PAN-Biotech #P04-03590)+10% FCS+glutamine). After incubation for 24 h at 37° C./5% CO2 compounds or DMSO are added at different concentrations by Echo Liquid Handling Technology. Cells are further incubated in humidified chambers for 72 h at 37° C. and 5% CO2. Cells treated with the compound vehicle DMSO are used as positive controls and cells treated with 10 μM Staurosporine serve as negative controls. At day 5-72h after compound addition—the CellTiter Glo Reagent is prepared according to the instructions of the kit (Promega Inc.): Reagent is mixed 1:1 with cell culture medium. Thereon, mixture and assay plates are equilibrated at room temperature for 20 min. Equal volumes of the reagent-medium-mixture is added to the volume of culture medium present in each well. The plates are mixed at […] for 2 minutes on an orbital shaker. The microplates are then incubated at room temperature for 10 minutes for stabilization of the luminescent signal. Following incubation the luminescence is recorded on a Victor microplate reader (Perkin Elmer) using a 200 ms integration time. The data is then analyzed with Excel using the XLFIT Plugin (dose response Fit 205) for IC50-determination. As quality control the Z′-factor is calculated from 16 positive and negative control values. […] Inhibition is indicated as IC50 [nM] (“-”=not measured).
SMILES,IC50 [1] [nM],IC50 [2] [nM],IC50 (HT-29 cells) [nM]
"Cc1cc(CC(=O)N[C@H]2CC(=O)N3CCCC(CCOc4ccc(C)c(c4)CNC(=O)[C@H](CCc4ccccc4)NC2=O)C3)ccc1N (stereo partly drawn) [Compound 303, 2-(4-amino-3-methylphenyl)-N-((9S,12S)-5^4-methyl-8,11,14-trioxo-9-phenethyl-4-oxa-7,10-diaza-1(3,1)-piperidina-5(1,3)-benzenacyclotetradecaphane-12-yl)acetamide]",< 100,< 100,< 100
"Cc1ccc2cc1CNC(=O)[C@H](CCc1ccccc1)NC(=O)[C@@H](NC(=O)C1(c3ccc(N)cc3)CCC1)CC(=O)N1CCCC(CCO2)C1 (stereo partly drawn) [Compound 306, 1-(4-aminophenyl)-N-((9S,12S)-5^4-methyl-8,11,14-trioxo-9-phenethyl-4-oxa-7,10-diaza-1(3,1)-piperidina-5(1,3)-benzenacyclotetradecaphane-12-yl)cyclobutane-1-carboxamide]",< 100,< 100,< 100
"Cc1ccc2cc1CNC(=O)[C@H](CCc1ccccc1)NC(=O)[C@@H](NC(=O)Cc1ccc(N)cc1C)CC(=O)N1CCCC(CCO2)C1 (stereo partly drawn) [Compound 304, 2-(4-amino-2-methylphenyl)-N-((9S,12S)-5^4-methyl-8,11,14-trioxo-9-phenethyl-4-oxa-7,10-diaza-1(3,1)-piperidina-5(1,3)-benzenacyclotetradecaphane-12-yl)acetamide]",< 100,< 100,< 100
"Cc1ccc2cc1CNC(=O)[C@H](CCc1ccccc1)NC(=O)CCCCCC(=O)N1CCCC(CCO2)C1 (stereo partly drawn) [Compound 22, (9S)-5^4-methyl-9-phenethyl-4-oxa-7,10-diaza-1(3,1)-piperidina-5(1,3)-benzenacycloheptadecaphane-8,11,17-trione]",–,–,1000 to 5000
"CC(=O)N[C@H]1CC(=O)N2CCC(CC2)Oc2ccc(C)c(c2)CNC(=O)[C@H](CCc2ccccc2)NC1=O [Compound 254, N-((7S,10S)-3^4-methyl-6,9,12-trioxo-7-phenethyl-2-oxa-5,8-diaza-1(4,1)-piperidina-3(1,3)-benzenacyclododecaphane-10-yl)acetamide]",–,–,100 to 500
"Cc1ccc2cc1CNC(=O)[C@H](CCc1ccccc1)NC(=O)[C@@H](NC(=O)C1(c3ccc(N)cc3)CCCC1)CC(=O)N1CCCC(CCO2)C1 (stereo partly drawn) [Compound 305, 1-(4-aminophenyl)-N-((9S,12S)-5^4-methyl-8,11,14-trioxo-9-phenethyl-4-oxa-7,10-diaza-1(3,1)-piperidina-5(1,3)-benzenacyclotetradecaphane-12-yl)cyclopentane-1-carboxamide]",< 100,< 100,< 100
"Cc1ccc2cc1CNC(=O)[C@H](CCc1ccccc1)NC(=O)[C@@H](NC(=O)Cc1ccc(N)cc1)CC(=O)N1CCC[C@@H](CCO2)C1 [Compound 173, 2-(4-aminophenyl)-N-((13S,9S,12S)-5^4-methyl-8,11,14-trioxo-9-phenethyl-4-oxa-7,10-diaza-1(3,1)-piperidina-5(1,3)-benzenacyclotetradecaphane-12-yl)acetamide]",–,–,100 to 500
"CCC1(C(=O)N[C@H]2CC(=O)N3CCCC(CCOc4ccc(C)c(c4)CNC(=O)[C@H](CCc4ccccc4)NC2=O)C3)CCNCC1 (stereo partly drawn) [Compound 151, 4-ethyl-N-((9S,12S)-5^4-methyl-8,11,14-trioxo-9-phenethyl-4-oxa-7,10-diaza-1(3,1)-piperidina-5(1,3)-benzenacyclotetradecaphane-12-yl)piperidine-4-carboxamide]",–,–,< 100

# Now from value to compound:
IC50 [1] [nM],IC50 [2] [nM],IC50 (HT-29 cells) [nM],SMILES
< 100,< 100,< 100,"Cc1ccc2cc1CNC(=O)[C@H](CCc1ccccc1)NC(=O)[C@@H](NC(=O)Cc1ccc(N)cc1F)CC(=O)N1CCCC(CCO2)C1 (stereo partly drawn) [Compound 318, 2-(4-amino-2-fluorophenyl)-N-((9S,12S)-5^4-methyl-8,11,14-trioxo-9-phenethyl-4-oxa-7,10-diaza-1(3,1)-piperidina-5(1,3)-benzenacyclotetradecaphane-12-yl)acetamide]"
> 5000,500 to 1000,100 to 500,"Cc1ccc2cc1CNC(=O)[C@H](CCc1ccccc1)NC(=O)[C@@H](NC(=O)OCc1ccccc1)CC(=O)N1CC(CCO2)Cc2ccccc21 (stereo partly drawn) [Compound 313, benzyl ((9S, 12S)-5^4-methyl-8,11,14-trioxo-9-phenethyl-11,12,13,14-tetrahydro-4-oxa-7,10-diaza-1(3,1)-quinolina-5(1,3)-benzenacyclotetradecaphane-12-yl)carbamate]"
< 100,< 100,< 100,"Cc1ccc2cc1CNC(=O)[C@H](CCc1ccccc1)NC(=O)[C@@H](NC(=O)OCc1ccccc1)CC(=O)N1CC(CCO2)CCC1C (stereo partly drawn) [Compound 315, benzyl ((9S,12S)-1^6,5^4-dimethyl-8,11,14-trioxo-9-phenethyl-4-oxa-7,10-diaza-1(3,1)-piperidina-5(1,3)-benzenacyclotetradecaphane-12-yl)carbamate]"
< 100,< 100,< 100,"Cc1ccc2cc1CNC(=O)[C@H](CCc1ccccc1)NC(=O)[C@@H](NC(=O)C1CCc3cc(N)ccc31)CC(=O)N1CCCC(CCO2)C1 (stereo partly drawn) [Compound 317, 5-amino-N-((9S,12S)-5^4-methyl-8,11,14-trioxo-9-phenethyl-4-oxa-7,10-diaza-1(3,1)-piperidina-5(1,3)-benzenacyclotetradecaphane-12-yl)-2,3-dihydro-1H-indene-1-carboxamide]"
< 100,< 100,< 100,"Cc1ccc2cc1CNC(=O)[C@H](CCc1ccccc1)NC(=O)[C@@H](NC(=O)C1(c3ccc(N)cc3)CC1)CC(=O)N1CCCC(CCO2)C1 (stereo partly drawn) [Compound 307, 1-(4-aminophenyl)-N-((9S,12S)-5^4-methyl-8,11,14-trioxo-9-phenethyl-4-oxa-7,10-diaza-1(3,1)-piperidina-5(1,3)-benzenacyclotetradecaphane-12-yl)cyclopropane-1-carboxamide]"
< 100,< 100,< 100,"Cc1ccc2cc1CNC(=O)[C@H](CCc1ccccc1)NC(=O)[C@@H](NC(=O)C(C)(C)c1ccc(N)cc1)CC(=O)N1CCCC(CCO2)C1 (stereo partly drawn) [Compound 308, 2-(4-aminophenyl)-2-methyl-N-((9S,12S)-5^4-methyl-8,11,14-trioxo-9-phenethyl-4-oxa-7,10-diaza-1(3,1)-piperidina-5(1,3)-benzenacyclotetradecaphane-12-yl)propanamide]"
> 5000,100 to 500,100 to 500,"Cc1ccc2cc1CNC(=O)[C@H](CCc1ccccc1)NC(=O)[C@@H](NC(=O)OCc1ccccc1)CC(=O)N(C)CCO2 [Compound 312, benzyl ((8S,11S)-1^4,5-dimethyl-6,9,12-trioxo-11-phenethyl-2-oxa-5,10,13-triaza-1(1,3)-benzenacyclotetradecaphane-8-yl)carbamate]"
< 100,< 100,< 100,"Cc1ccc2cc1CNC(=O)[C@H](CCc1ccccc1)NC(=O)[C@@H](NC(=O)c1cccc3c1CNCC3)CC(=O)N1CCCC(CCO2)C1 (stereo partly drawn) [Compound 316, N-((9S,12S)-5^4-methyl-8,11,14-trioxo-9-phenethyl-4-oxa-7,10-diaza-1(3,1)-piperidina-5(1,3)-benzenacyclotetradecaphane-12-yl)-1,2,3,4-tetrahydroisoquinoline-5-carboxamide]"
